Assay [1] deals with T1, hPTHR1–hPTHR2 chimeric receptors (C1, C2, C3) and mutant hPTHR1s (M24, M25, M26, M414V, P415L, L416V) (Homo sapiens, UniProt Q03431, A426C/A97V/D353E/D94P/DEL429-429/E431S/E93Y/E96D/G100Y/G350R/I363Y/K359I/K95Y/L436G/L446F/M425V/M445L/N348D/N358D/Q438E/Q440R/S101A/S341V/S356A/S370A/S433T/T349A/T427L/T430H/T435L/T99D/V334A/V338A/V340A/V342A/V365A/V372G/V432F/V439I/Y443C).
T1 construct: expressed in transfected cells; host or cells: COS-7 (transient)
The format is cell-based. The following applies: cells expressing C3. How it is done:
(§1) COS-7 cells (ATCC) were seeded into a 96-well flat-bottomed plate (1.4 × 10^4 cells per 100 μl per well) and incubated overnight. The next day, the COS-7 cells were transfected by adding 10 μl of a mixture of hPTHR1, hPTHR2 or mutant hPTHR1 plasmid, rat PTHR1 or rat PTHR2 plasmid, or empty vector (0.1 μg per well), FuGENE HD Transfection Reagent (0.4 μl per well, Promega), and Opti-MEM I Reduced Serum Medium (10 μl per well, Life Technologies) to each well. […] The plate was placed in a 37 °C constant-temperature water bath for 20 min to allow the reaction to proceed. After incubation, the liquid in the wells was discarded, the wells were washed with the assay medium (100 μl per well), and the plate was frozen on dry ice. Next, 40 μl of 50 mmol l^−1 HCl was added to each well, and the plate was stored in a freezer set at ≤−20 °C. The cAMP concentrations were measured by using a cAMP EIA kit (GE Healthcare). EC50 values were determined from three independent experiments in duplicate by a non-linear regression Emax model (JMP ver.9.0.2, SAS Institute). The geometric mean of the EC50 values obtained in three experiments in duplicate was calculated using Microsoft Office Excel 2007. […]

For assay [2], the target named is T2, hPTHR1–hPTHR2 chimeric receptors (C1, C2, C3) and mutant hPTHR1s (M24, M25, M26, M414V, P415L, L416V) (Homo sapiens, UniProt Q03431, P415L).
T2 construct: expressed in transfected cells; host or cells: COS-7 (transient)
T2 sequence (Q03431 27-593 E93Y/D94P/K95Y/E96D/A97V/T99D/G100Y/S101A/P415L): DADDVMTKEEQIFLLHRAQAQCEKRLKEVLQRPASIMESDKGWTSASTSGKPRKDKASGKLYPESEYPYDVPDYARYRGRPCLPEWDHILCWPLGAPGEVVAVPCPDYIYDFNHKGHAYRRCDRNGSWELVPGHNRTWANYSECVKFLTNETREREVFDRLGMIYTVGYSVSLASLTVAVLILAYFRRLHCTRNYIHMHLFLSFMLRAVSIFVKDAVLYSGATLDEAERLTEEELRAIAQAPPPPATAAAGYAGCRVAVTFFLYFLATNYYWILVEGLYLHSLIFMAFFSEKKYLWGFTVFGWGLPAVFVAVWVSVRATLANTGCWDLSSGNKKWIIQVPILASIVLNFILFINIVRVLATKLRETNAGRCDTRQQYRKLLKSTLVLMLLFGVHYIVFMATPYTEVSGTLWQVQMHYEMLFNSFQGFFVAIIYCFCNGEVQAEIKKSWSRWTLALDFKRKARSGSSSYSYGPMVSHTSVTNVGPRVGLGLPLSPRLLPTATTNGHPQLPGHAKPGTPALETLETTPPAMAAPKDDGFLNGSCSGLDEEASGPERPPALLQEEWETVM
The format is cell-based. Conditions: single replacement P415L. As to the method:
as §1

The test system of assay [3] is hPTHR1–hPTHR2 chimeric receptors (C1, C2, C3) and mutant hPTHR1s (M24, M25, M26, M414V, P415L, L416V). Type of assay: cell-based, human. As to the method: as §1
The target of a further assay is T3, hPTHR2 (Homo sapiens, UniProt P49190).
T3 construct: expressed in transfected cells; host or cells: COS-7 (transient)
T3 sequence (P49190 25-550): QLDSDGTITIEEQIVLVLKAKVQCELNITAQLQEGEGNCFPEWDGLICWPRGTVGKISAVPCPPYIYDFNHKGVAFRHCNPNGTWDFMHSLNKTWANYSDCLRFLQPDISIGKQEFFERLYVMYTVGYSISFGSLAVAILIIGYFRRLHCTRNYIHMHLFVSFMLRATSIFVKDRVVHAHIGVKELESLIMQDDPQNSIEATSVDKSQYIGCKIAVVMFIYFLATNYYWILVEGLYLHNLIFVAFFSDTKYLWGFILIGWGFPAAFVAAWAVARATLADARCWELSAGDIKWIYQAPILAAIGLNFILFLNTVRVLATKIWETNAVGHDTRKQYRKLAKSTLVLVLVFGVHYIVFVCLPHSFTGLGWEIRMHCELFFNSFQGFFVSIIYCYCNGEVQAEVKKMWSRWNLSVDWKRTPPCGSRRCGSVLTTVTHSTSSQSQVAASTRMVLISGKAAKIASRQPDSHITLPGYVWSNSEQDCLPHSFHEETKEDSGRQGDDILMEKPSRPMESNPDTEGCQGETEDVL
Briefly: cAMP production assay in COS-7 cells expressing hPTHR2. Conditions: COS-7 cells expressing human PTHR2. Type of assay: cell-based. How it is done: as §1

In another assay the target is T4, hPTHR1 (Homo sapiens, UniProt Q03431).
T4 construct: similar to that of cells expressing full-length hPTHR1; expressed in transfected cells; host or cells: COS-7 (transient, FuGENE HD)
T4 sequence (Q03431 27-593 E93Y/D94P/K95Y/E96D/A97V/T99D/G100Y/S101A): T2 sequence (Q03431 27-593 E93Y/D94P/K95Y/E96D/A97V/T99D/G100Y/S101A/P415L) with L389P
The assay is described as follows: cAMP production assay in COS-7 cells expressing hPTHR1. Type of assay: cell-based. The following applies: COS-7 cells expressing hPTHR1, 20 min. How it is done: as §1
Background: Cyclic AMP is a second messenger, typically raised through Gs and lowered through Gi signalling.

Substitutions are numbered along the chain they refer to.

By EC50 is commonly meant the concentration at which the effect is half-maximal. A low value points to a more potent agent.

T1 sequence (Q03431 other isoform, or with tags, fused parts or gaps with the stated changes): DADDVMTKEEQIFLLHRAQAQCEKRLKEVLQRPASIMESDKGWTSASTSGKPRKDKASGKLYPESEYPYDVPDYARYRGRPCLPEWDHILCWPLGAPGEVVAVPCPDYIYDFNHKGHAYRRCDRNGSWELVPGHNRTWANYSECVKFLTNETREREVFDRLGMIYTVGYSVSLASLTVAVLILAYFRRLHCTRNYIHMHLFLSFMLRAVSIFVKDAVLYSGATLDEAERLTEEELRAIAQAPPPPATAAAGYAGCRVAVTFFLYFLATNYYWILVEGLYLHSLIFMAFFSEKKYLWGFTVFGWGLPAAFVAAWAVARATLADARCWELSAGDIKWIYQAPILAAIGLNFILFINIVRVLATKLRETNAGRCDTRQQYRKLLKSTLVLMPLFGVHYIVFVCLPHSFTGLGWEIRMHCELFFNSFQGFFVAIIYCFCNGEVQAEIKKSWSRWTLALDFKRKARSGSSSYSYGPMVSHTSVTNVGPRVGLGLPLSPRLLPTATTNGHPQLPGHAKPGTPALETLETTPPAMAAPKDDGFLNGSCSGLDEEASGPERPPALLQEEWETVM

Consider `Cc1cc(N2C(=O)NC(=O)C2(C)C)cc(C)c1CCS(=O)(=O)N1CCC2(CC1)N=C(c1ccc(OC(F)(F)F)cc1)NC2=O` [PCO371, 1-{3,5-dimethyl-4-[2-({4-oxo-2-[4-(trifluoromethoxy)phenyl]-1,3,8-triazaspiro[4.5]dec-1-en-8-yl}sulfonyl)ethyl]phenyl}-5,5-dimethylimidazolidine-2,4-dione], for which the cAMP response entry in assay [1] was “responded well”; in assay [3] (single replacements M414V and L416V) it was “only modest effects”. For the same compound, the cAMP production entry in assay [2] was “dramatic reduction”; on hPTHR2, “did not stimulate cAMP production”. Further, the cAMP result in assay [3] (cells expressing C1 or C2) is “did not do so”. Also, the midpoint of the response on hPTHR1, the EC50, lay at 2400 nM.

Values taken from publication PMC5120204, “Identification of an orally active small-molecule PTHR1 agonist for the treatment of hypoparathyroidism” (Nature Communications, 2016).
